Source: patent publication US20220249617A1, “CYCLODEXTRIN BASED INJECTABLE COFORMULATIONS OF SGLT2 INHIBITORS AND INCRETIN PEPTIDES” (MEDIMMUNE LIMITED, priority 2019, published 2022)
Values after ≈ are worked out from the molar mass of the structure shown.

Key:
[1] = target 17 mg/mL DPZ; formulation containing cyclodextrin (HPβCD); visual observation
Description: The appropriate aqueous vehicle was added onto the powder to achieve a final concentration of 17 mg/mL, vortex mixed, and sonicated. The pass/fail criteria for the formulation was determined through visual observation.
The screening assay was therefore designed to target a concentration of 17 mg/mL, corresponding to a […] dose in 600 μL dose volume. […] The excipients screened included PEG 400, PG, DSPE-PEG 2000, Glycerol, Kolliphor 188, HPβCD, and BSA. […] Only the formulation containing cyclodextrin was successful and therefore taken forward for further evaluation as a potential co-formulation vehicle.

[2] = oral administration; cited from earlier work
[3] = Pharmacokinetic study after subcutaneous injection in rats; type: in vivo; details: DPZ 0.5 mg/kg
Description: For the PK study, MEDI0382 alone in buffer was prepared at 0.5 mg/mL in 50 mM Na Phosphate buffer pH 7.8+1.85% propylene glycol (PG) (J. T. Baker).
The cyclodextrin vehicle used for the PK study was 7% w/v HPβCD in 50 mM Na Phosphate buffer pH 7.8+0.5% v PG. The PG was added to adjust the osmolarity of the formulations to 260 mOsm. […] In parallel, MEDT0382 alone in buffer was prepared at 0.5 mg/mL in 50 mM NaP buffer pH 7.8+1.85% v/v PG. The formulations were then diluted to 1/10 with their corresponding vehicle.
Three animals per group were included, and serial blood sampling for PK evaluation occurred at 0.5, 1, 2, 4, 7, and 24 hr post dose.

[4] = physchem
Description: Various HPβCD (Kleptose HPB, Roquette) solutions at increasing concentrations were prepared in water ranging from 5% to 20% (w/v). Briefly, HPβCD was weighed in a volumetric flask and purified water was added up to 80% (v/v) of final volume. The flask was mixed until full solubilisation and made up to final volume with purified water. […] Each concentration was done in duplicate. The formulations were left under magnetic stirring for 21 h 40 min. Each sample was then transferred to a 1.5 mL eppendorf and centrifuged at 13,000 rpm for 10 min. Then 200 μL was taken from the supernatant and centrifuged again in a 1.5 mL eppendorf for 30 min at 13,000 rpm. The samples were finally diluted in buffer A (95% HPLC water/5% ACN+0.03% TFA), and the concentration was measured by UPLC against a calibration curve validated with quality controls.

[5] = cited from earlier work
[6] = tested on: non-human primates; details: repeat injections; cited from earlier work
[7] = molecular target: T1, human recombinant glucagon receptor (Homo sapiens, UniProt P47871); assay: In vitro potency assay, cAMP response element luciferase reporter in CHO cells; type: cell-based; details: MEDI0382 in buffer, in cyclodextrin, and co-formulated with DPZ
T1 construct: expressed in transfected cells; host or cells: CHO-K1
T1 sequence (P47871 26-477): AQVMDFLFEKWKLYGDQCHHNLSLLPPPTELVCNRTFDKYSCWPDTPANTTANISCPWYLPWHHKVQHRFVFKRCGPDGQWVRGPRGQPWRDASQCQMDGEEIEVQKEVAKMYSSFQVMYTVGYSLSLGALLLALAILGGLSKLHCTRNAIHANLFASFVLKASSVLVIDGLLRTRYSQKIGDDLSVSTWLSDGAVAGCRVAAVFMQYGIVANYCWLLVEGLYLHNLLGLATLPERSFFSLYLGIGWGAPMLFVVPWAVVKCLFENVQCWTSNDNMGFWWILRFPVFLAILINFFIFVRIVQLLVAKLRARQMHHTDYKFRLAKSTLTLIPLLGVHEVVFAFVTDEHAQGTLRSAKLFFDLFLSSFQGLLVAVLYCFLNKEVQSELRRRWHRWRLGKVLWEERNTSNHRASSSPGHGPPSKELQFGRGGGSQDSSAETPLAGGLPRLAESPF
Description: (§1) Briefly, cells were plated at 20,000 cells per well in 96-well white microtiter plates (Corning, USA) and incubated with serially diluted peptide samples for 4 hours prior to lysis and measurement of cAMP dependent luciferase activity using Steady-Glo luciferase substrate (Promega, USA). Plates were read on a SpectraMax Paradigm plate reader (Molecular Devices, USA), and 10-point concentration-response curves were generated in triplicate. Results were expressed as the relative potency of the test sample compared to a reference ligand by calculating the ratio of the reference and sample EC50 values from a 4-PL fit following a test for parallelism using SoftMax Pro software (Molecular Devices, USA), and the reported data was the mean of two independent assays. Curves were fitted using nonlinear regression analysis in GraphPad Prism software 6.03 (GraphPad, USA).
(§2) Although HPβCD enhances the physical stability of the peptide, the loss of alpha-helix could have a dramatic impact on the potency of the peptide. […] The in vitro potency was assessed on CHO cells over-expressing human recombinant GLP-1 or glucagon receptors, and the activity was reported as EC50 values after measurement of cAMP accumulation.

[8] = molecular target: T2, human recombinant GLP-1 receptor (Homo sapiens, UniProt P43220); assay: as above; type: cell-based; details: MEDI0382 in buffer, in cyclodextrin, and co-formulated with DPZ
T2 construct: expressed in transfected cells; host or cells: CHO-K1
T2 sequence (P43220 24-463): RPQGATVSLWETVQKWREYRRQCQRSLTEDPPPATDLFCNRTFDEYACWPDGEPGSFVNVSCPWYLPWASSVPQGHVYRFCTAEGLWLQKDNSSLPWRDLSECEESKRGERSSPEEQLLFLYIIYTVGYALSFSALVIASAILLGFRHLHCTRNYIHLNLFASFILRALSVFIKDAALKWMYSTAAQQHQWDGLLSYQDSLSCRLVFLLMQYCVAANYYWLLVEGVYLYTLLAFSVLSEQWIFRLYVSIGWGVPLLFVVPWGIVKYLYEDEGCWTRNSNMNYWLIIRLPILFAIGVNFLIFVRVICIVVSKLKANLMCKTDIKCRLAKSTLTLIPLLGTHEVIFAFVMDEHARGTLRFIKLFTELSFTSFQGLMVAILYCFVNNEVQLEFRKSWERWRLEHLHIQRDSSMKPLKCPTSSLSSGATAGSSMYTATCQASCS
Description: as §1, §2

[9] = tested on: DIO mice; details: repeat injections; cited from earlier work
[10] = tested on: overweight and obese patients with type 2 diabetes; details: cited from earlier work

CCOc1ccc(Cc2cc([C@@H]3O[C@H](CO)[C@@H](O)[C@H](O)[C@H]3O)ccc2Cl)cc1 [DPZ, dapagliflozin]
Solubility screen result (pass/fail) [1]: successful
absolute bioavailability [2]: 78%
PK of DPZ in the presence of MEDI0382 [3]: unchanged
amount of HPβCD required to increase the solubility up to 17 mg/mL [4]: 5.5 % (w/v)
solubility change with increasing HPβCD concentration [4]: linearly increased
stoichiometry of inclusion complex (phase solubility) [4]: 1:1
solubility at 21.67 h ([4]; water, thermodynamic from solid): 1600 µg/mL (≈ 3.91 mM)

glucagon
pKa of N-terminal His alpha-amino group [5]: 7.6
pKa of N-terminal His imidazole group [5]: 7.4

CCCCCCCCCCCCCCCC(=O)N[C@@H](CCC(=O)NCCCC[C@H](NC(=O)[C@H](CC(=O)O)NC(=O)[C@H](CO)NC(=O)[C@@H](NC(=O)[C@H](Cc1ccccc1)NC(=O)[C@@H](NC(=O)CNC(=O)[C@H](CCC(N)=O)NC(=O)[C@H](CO)NC(=O)[C@@H](N)Cc1c[nH]cn1)[C@@H](C)O)[C@@H](C)O)C(=O)N[C@@H](CO)C(=O)N[C@@H](CCC(=O)O)C(=O)N[C@@H](Cc1ccc(O)cc1)C(=O)N[C@@H](CC(C)C)C(=O)N[C@@H](CC(=O)O)C(=O)N[C@@H](CO)C(=O)N[C@@H](CCC(=O)O)C(=O)N[C@@H](CCCNC(=N)N)C(=O)N[C@@H](C)C(=O)N[C@@H](CCCNC(=N)N)C(=O)N[C@@H](CC(=O)O)C(=O)N[C@@H](Cc1ccccc1)C(=O)N[C@H](C(=O)N[C@@H](C)C(=O)N[C@@H](Cc1c[nH]c2ccccc12)C(=O)N[C@@H](CC(C)C)C(=O)N[C@@H](CCC(=O)O)C(=O)N[C@@H](C)C(=O)NCC(=O)NCC(=O)O)C(C)C)C(=O)O [MEDI0382]
effect on weight and glucose [6]: marked weight loss and robust glucose control
EC50 (cAMP accumulation), change between formulations [7]: no change of EC50
EC50 (cAMP accumulation), change between formulations [8]: no change of EC50
effect on weight and glucose [9]: marked weight loss and robust glucose control
clinical efficacy [10]: glucose, weight and liver fat lowering efficacy

OC[C@H]1O[C@@H](c2ccc(Cl)c(Cc3ccc(O[C@H]4CCOC4)cc3)c2)[C@H](O)[C@@H](O)[C@@H]1O [EPZ, empagliflozin]
solubility change with increasing HPβCD concentration [4]: linear solubility increase
